Results: publication PMC13086964, “USP7 deubiquitinase stabilizes FAN1 to support DNA crosslink repair and suppress CAG repeat expansion” (Nature Communications, 2026)

Key:
[1] = test system: HeLa cells; test: clonogenic survival assay, HeLa parental; format: cell-based, human; conditions: MMC 10, 20, and 40 ng/ml, 24 h, n=4
Method: HeLa and RPE-1 p53 KO cells were transfected with the indicated siRNA. The next day, the cells were seeded in six-well plates. The next day, the cells were treated with MMC for 24 h. Plates were then washed twice with 2 ml of PBS before adding fresh growth medium to the cells, that were then cultured for 13 days at 37 °C before fixation with crystal violet solution [0.5% crystal violet and 20% ethanol (w/v)]. For analysis, plates were scanned and analysed with the ImageJ Plugin ColonyArea using the parameter “intensity percent”. […]
the mean (dashed lines) are indicated. Representative images are shown (bottom). Scale bar: 10 μm. […]
Western blot analysis of HeLa cells depleted of the indicated factors. (E) Clonogenic survival assay of the HeLa cells depleted of the indicated factors (Ctrl: black circle; FANCD2: red square; USP7#1: inverted blue triangle; USP7#2: cyan triangle; RAD18: brown diamond) and exposed to increasing doses of MMC for 24 h. Viability of untreated cells was defined as 100%. Data are presented as the means ± SD of four biological replicates (n=4). Representative images are shown (left). (F) Western blot analysis of HeLa and HeLa FAN1 KO cells depleted of the indicated factors. […]

[2] = test system: FAN1 protein level; test: immunoblot of FAN1 levels after MMC, HeLa; format: cell-based, human; conditions: MMC 1 μg/ml, 48 h
Method: Fig. 4 USP7 facilitates FAN1 localization and function during ICL repair. A QIBC analysis of chromatin-bound GFP-FAN1 foci in U2OS^eGFP-FAN1 cells transfected with either non-targeting (Ctrl), USP7 or FANCD2 siRNA oligos. 24 h later, cells were either mock-treated (–) or treated (+) with MMC (150 ng/ml) for 24 h. Color-coded scatterplots (from grey to green) indicate the number of GFP-FAN1 foci per nucleus from one biological replicate. Mean (solid line) and standard deviation (SD) from the mean (dashed lines) are indicated. Representative images are shown (bottom). Scale bar: 10 μm. This experiment was repeated three times. B QIBC analysis of endogenous FANCD2 foci in U2OS^eGFP-FAN1 cells transfected with either non-targeting (Ctrl) or the indicated siRNA oligos. 24 h later, cells were either mock-treated (−) or treated (+) with MMC (150 ng/ml) for 24 h. Color-coded scatterplots (from grey to blue) indicate the number of FANCD2 foci per nucleus from one biological replicate. Mean (solid line) and standard deviation (SD) from the mean (dashed lines) are indicated. […] 24 h later, cells were either mock-treated (−) or treated (+) with MMC (1 μg/ml) for 48 h and whole-cell lysates were analysed by immunoblotting. […] Relative FAN1, cleaved PARP-1 or cleaved Caspase-3 protein levels were determined by quantification of the respective band intensity (normalized to GAPDH) with the ImageJ software. […]

Q: For `CO[C@@]12[C@H](COC(N)=O)C3=C(C(=O)C(C)=C(N)C3=O)N1C[C@@H]1N[C@@H]12` [MMC, Mitomycin C], which “MMC sensitivity, RAD18 or FANCD2 depletion” value [1] is on record?
A: Its value is “more pronounced effects”.

Q: What about the “MMC sensitivity, USP7 depletion” value ([1]; two independent USP7 siRNA) of the same molecule?
A: The value was “only a modest increase MMC sensitivity”.

Q: What about the “FAN1 levels in response to MMC” value [2] of the same molecule?
A: The value was “upregulated”.

Q: What about the “MMC-induced FAN1 upregulation with USP7 depletion” value ([2]; USP7 siRNA) of the same molecule?
A: The value was “abrogated by USP7 depletion”.
